The record followed here is ChEMBL document CHEMBL1143038, “Highly oxygenated and unsaturated metabolites providing a diversity of hispidin class antioxidants in the medicinal mushrooms Inonotus and Phellinus” (Bioorg Med Chem, 2007).

What all share (assay type): functional
Experiment [1] concerns Radical scavenging activity. Description: Antioxidant activity assessed as DPPH radical scavenging activity. For orientation: DPPH is a stable violet radical that fades when it is reduced.
A short description of experiment [2]: Antioxidant activity assessed as superoxide radical anion scavenging activity.
Experiment [3] is described as follows: Antioxidant activity assessed as ABTS radical scavenging activity.

Usually IC50 stands for the midpoint of a concentration-inhibition curve.

For VITAMIN E, the IC50 in experiment [1] is over 100 µM; in experiment [2], 3.4 µM; in experiment [3], 11.6 µM.

On to `CC(=O)/C(=C\c1ccc(O)c(O)c1)c1c(O)cc(/C=C/c2ccc(O)c(O)c2)oc1=O` [INTERFUNGIN B], for which the results for the IC50 in experiment [1], in experiment [2] and in experiment [3] were 2.5 µM, 1.8 µM and 11.1 µM, respectively.

On to `COC(=O)/C(=C\c1ccc(O)c(O)c1)c1c(O)cc(/C=C/c2ccc(O)c(O)c2)oc1=O` [INTERFUNGIN C], for which the IC50 worked out at 3.7 µM in experiment [1], 3.1 µM in experiment [2] and 11.1 µM in experiment [3].

On to `CC(=O)/C=C(O)/C(=C\c1ccc(O)c(O)c1)c1c(O)cc(/C=C/c2ccc(O)c(O)c2)oc1=O` [INTERFUNGIN A], for which the IC50 in experiment [1] amounted to 6.3 µM; in experiment [2] it was 2.7 µM; in experiment [3], 14.1 µM.

`O=C(O)/C=C/c1ccc(O)c(O)c1` [CAFFEIC ACID]: the values for the IC50 in experiment [1], in experiment [2] and in experiment [3] were 3.7 µM, 2.2 µM and 25.9 µM, respectively.
